In test [1] the target is PIK3CA (human) (UniProt P42336). Kind of test: Inhibition of PIK3CA Kinase Activity.
Test [2] has the same target. The test can be described thus: Inhibition of A2780 Cell Proliferation.

For 27 molecules, IC50 and EC50 results are on record in the Kinase Knowledgebase extract (Sharma et al. 2016).

As usually defined, the IC50 is the concentration that gives 50% inhibition. A lower IC50 goes with greater potency. For orientation: EC50 means the concentration giving half of the maximal effect.

Some results are limits rather than exact numbers.

Sequence of PIK3CA (human) (P42336 whole entry, looked up): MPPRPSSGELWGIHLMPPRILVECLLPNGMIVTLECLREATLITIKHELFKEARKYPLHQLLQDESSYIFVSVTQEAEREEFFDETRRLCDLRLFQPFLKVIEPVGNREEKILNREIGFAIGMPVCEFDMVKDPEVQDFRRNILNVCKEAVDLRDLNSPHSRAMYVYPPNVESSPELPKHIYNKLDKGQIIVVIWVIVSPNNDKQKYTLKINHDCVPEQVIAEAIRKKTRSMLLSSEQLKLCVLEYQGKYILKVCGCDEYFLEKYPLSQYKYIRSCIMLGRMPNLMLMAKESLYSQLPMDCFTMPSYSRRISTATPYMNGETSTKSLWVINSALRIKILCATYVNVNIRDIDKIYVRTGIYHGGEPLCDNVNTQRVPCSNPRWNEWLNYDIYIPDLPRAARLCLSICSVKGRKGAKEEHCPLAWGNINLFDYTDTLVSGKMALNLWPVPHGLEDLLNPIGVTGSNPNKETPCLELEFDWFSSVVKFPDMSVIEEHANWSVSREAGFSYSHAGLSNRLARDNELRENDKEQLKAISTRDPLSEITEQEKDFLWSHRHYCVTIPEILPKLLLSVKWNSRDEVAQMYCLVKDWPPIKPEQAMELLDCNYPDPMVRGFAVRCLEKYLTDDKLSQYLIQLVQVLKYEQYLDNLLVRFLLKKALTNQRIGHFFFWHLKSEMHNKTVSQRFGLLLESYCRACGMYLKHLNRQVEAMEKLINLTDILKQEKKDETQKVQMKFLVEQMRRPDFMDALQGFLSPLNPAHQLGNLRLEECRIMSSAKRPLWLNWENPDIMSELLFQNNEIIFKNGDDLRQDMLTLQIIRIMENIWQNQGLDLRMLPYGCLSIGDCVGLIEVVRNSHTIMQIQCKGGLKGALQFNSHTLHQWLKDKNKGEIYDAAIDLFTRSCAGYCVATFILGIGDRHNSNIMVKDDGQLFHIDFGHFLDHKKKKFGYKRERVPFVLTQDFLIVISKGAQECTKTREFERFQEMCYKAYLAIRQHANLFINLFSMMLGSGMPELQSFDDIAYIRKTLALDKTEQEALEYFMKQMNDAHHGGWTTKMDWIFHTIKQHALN

For the molecule `CC(=O)Nc1ccc(-c2c(NC(C)=O)nc3ccc(-c4cnc(N)c(C(F)(F)F)c4)cn23)cc1`, the IC50 in test [1] was < 1000 nM. The half-maximal effective concentration (EC50) in test [2] was < 25000 nM.
On the same counts, the results for `CC(=O)Nc1cn2nc(-c3cnc(N)c(C(=O)NCCNC(=O)OC(C)(C)C)c3)ccc2n1` are < 1000 nM and < 1000 nM.
On the same counts, the results for `CC(=O)Nc1cn2nc(-c3cnc(N)c(OC(F)F)c3)ccc2n1` are < 1000 nM and < 1000 nM.
On the same counts, the results for `CC(=O)Nc1nc2ccc(-c3cnc(N)c(C(F)(F)F)c3)cn2c1-c1cccc(F)c1` are < 1000 nM and < 25000 nM.
Consider `Nc1ncc(-c2ccc3nc(NC(=O)CO[C@H]4CCNC4)cn3n2)cc1C(F)(F)F`, for which the IC50 in test [1] is < 1000 nM. For the same molecule, the concentration giving a half-maximal response (EC50) in test [2] is < 1000 nM.
As to `COc1cc(-c2ccc3nc(NC(C)=O)cn3c2C)cnc1N`, the IC50 in test [1] is < 1000 nM. For the same molecule, the EC50 in test [2] was < 25000 nM.
On the same counts, the results for `CC(=O)Nc1nc2c(F)cc(-c3cnc(N)c(C(F)(F)F)c3)cc2s1` are < 1000 nM and < 25000 nM.
For `Nc1ncc(-c2ccc3nc(NC(=O)Cc4cccc5ccccc45)cn3c2)cc1C(F)(F)F` the same measures were < 1000 nM and < 1000 nM.
With `Nc1ncc(-c2ccc3nc(NC(=O)C4CNC4)cn3n2)cc1C(F)(F)F`, the half-maximal inhibitory concentration (IC50) in test [1] was < 1000 nM. Further, the EC50 in test [2] is < 10000 nM.
For `CC(=O)Nc1cn2cc(-c3cnc(N)c(Br)n3)ccc2n1` the same measures were < 1000 nM and < 25000 nM.
For `Nc1ccc(-c2ccc3nc(NC(=O)OCCN4CCOCC4)sc3c2)cn1` the same measures were < 1000 nM and < 25000 nM.
On the same counts, the results for `CC(C)(C)OC(=O)NCCC(=O)Nc1cn2nc(-c3cnc(N)c(C(F)(F)F)c3)ccc2n1` are < 1000 nM and < 10000 nM.
As for `Nc1ncc(-c2ccc3nc(NC(=O)C4CCN4)cn3n2)cc1C(F)(F)F` (centres undefined), the half-maximal inhibitory concentration (IC50) in test [1] was < 1000 nM. The EC50 in test [2] was < 10000 nM.
As for `CC(=O)Nc1cn2cc(-c3cnc(N)cc3F)ccc2n1`, the half-maximal inhibitory concentration (IC50) in test [1] was < 1000 nM. Besides, the concentration for a half-maximal effect (EC50) in test [2] was < 25000 nM.
Consider `CC(=O)Nc1cn2cc(-c3cnc(N)cn3)ccc2n1`, for which, in test [1], the half-inhibitory concentration (IC50) is < 1000 nM. In addition, the concentration giving a half-maximal response (EC50) in test [2] was < 25000 nM.
For `CC(=O)Nc1cn2nc(-c3cnc(N)cc3C(F)(F)F)ccc2n1` the same measures were < 1000 nM and < 25000 nM.
For `Nc1ncc(-c2ccc3nc(NC(=O)N4CCCC4c4ccccn4)cn3c2)cc1C(F)(F)F` (centres undefined) the same measures were < 1000 nM and < 25000 nM.
On the same counts, the results for `CNC(=O)[C@@H]1CCN1C(=O)Nc1cn2cc(-c3cnc(N)c(C(F)(F)F)c3)ccc2n1` are < 25000 nM and < 25000 nM.
For the molecule `Nc1ncc(-c2ccc3nc(NC(=O)CN4CCCCC4)cn3n2)cc1C(F)(F)F`, in test [1], the concentration for half-maximal inhibition (IC50) was < 1000 nM. The EC50 in test [2] was < 10000 nM.
On the same counts, the results for `COC(=O)Nc1cn2cc(-c3cnc(N)c(C(F)(F)F)c3)ccc2n1` are < 1000 nM and < 10000 nM.
For `CC(=O)Nc1nc2ccc(-c3cnc(N)c(C(F)(F)F)c3)cn2c1C#Cc1ccncc1`, the IC50 in test [1] was < 1000 nM. In addition, the concentration for a half-maximal effect (EC50) in test [2] is < 1000 nM.
In the case of `CC(=O)Nc1cn2cc(-c3cnc(N)c(-c4cccc(C(F)(F)F)c4)c3)ccc2n1`, in test [1], the half-maximal inhibitory concentration (IC50) is < 1000 nM. In addition, the concentration for a half-maximal effect (EC50) in test [2] is < 1000 nM.
As to `CC(=O)Nc1nc2ccc(-c3cnc(N)c(F)c3)cc2s1`, the IC50 in test [1] is < 1000 nM. Besides, the half-maximal effective concentration (EC50) in test [2] was < 10000 nM.
On the same counts, the results for `CC(=O)Nc1nc2ccc(-c3cnc(N)c(C(F)(F)F)c3)cn2c1C#Cc1cccnc1` are < 1000 nM and < 1000 nM.
As for `CC(=O)Nc1nc2ccc(-c3cnc(N)c(C(F)(F)F)c3)cn2c1-c1ccc(C(N)=O)cc1`, the IC50 in test [1] is < 1000 nM. In addition, the EC50 in test [2] is < 25000 nM.
On the same counts, the results for `COc1cc(-c2ccc3nc(NC(C)=O)cn3c2)c(C)nc1N` are ≥ 25000 nM and < 10000 nM.
For `CC(C)(C)OC(=O)N1CCC1C(=O)Nc1cn2cc(-c3cnc(N)c(OCC(F)(F)F)n3)ccc2n1` (centres undefined) the same measures were < 1000 nM and < 25000 nM.
